Data taken from US7790737B2, “Substituted pyrimidine compounds and their utility as CETP inhibitors” (Kowa Company, Ltd., priority 2007, dated 2010).

Biological target: T1, CETP (Homo sapiens, UniProt P11597)
T1 construct: from tissue; host or cells: human plasma
T1 sequence (P11597 18-493): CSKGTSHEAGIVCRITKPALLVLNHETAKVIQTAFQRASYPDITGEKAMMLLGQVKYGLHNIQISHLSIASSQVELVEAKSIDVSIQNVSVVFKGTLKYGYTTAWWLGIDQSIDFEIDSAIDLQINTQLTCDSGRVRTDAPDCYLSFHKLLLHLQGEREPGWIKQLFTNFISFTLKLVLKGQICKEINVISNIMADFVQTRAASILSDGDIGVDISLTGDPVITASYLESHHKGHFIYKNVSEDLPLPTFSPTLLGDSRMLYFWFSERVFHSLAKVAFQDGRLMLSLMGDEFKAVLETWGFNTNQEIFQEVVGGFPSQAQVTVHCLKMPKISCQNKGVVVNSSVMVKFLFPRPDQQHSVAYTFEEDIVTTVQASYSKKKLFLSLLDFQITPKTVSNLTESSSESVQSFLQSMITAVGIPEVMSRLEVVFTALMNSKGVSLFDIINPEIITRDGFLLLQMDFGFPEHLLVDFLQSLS
Test: Measurement of CETP inhibitory action in human plasma (Roar Biomedical CETP Activity kit, fluorescence)
Assay type: biochemical
Settings: human plasma incubated with compound at 37° C. for 4 hours; calculated from CETP inhibitory rate at two or more concentrations; read-out: IC50 (concentration inhibiting the CETP activity by 50%)
Experimental: A solution obtained by dissolving an exemplary compound or a comparative compound in polyethylene glycol/N-methyl-2-pyrrolidone (vol/vol=1/1) was added to human plasma, and the mixture was incubated in an incubator at 37° C. for 4 hours. The CETP activity in this plasma was measured with Cholesteryl Ester Transfer Protein Activity kit (Roar Biomedical, catalog No.: RB-CETP). Specifically, to each well of a 96-well plate, 95 μL of a buffer (10 mM Tris, 150 mM NaCl, 2 mM EDTA, pH 7.4), 2 μL of Donor particle and 2 μL of Acceptor particle were added, 1 μL of the human plasma after the incubation was added to the mixture, and the mixture was incubated in an incubator at 37° C. for 2 hours. After completion of the incubation, fluorescence intensity (FLU) was measured with a fluorescence plate reader (excitation wavelength: 465 nm, emission wavelength: 535 nm). In accordance with the following equation 1, the CETP activity (% of control) was obtained for the compounds of the examples and the comparative compounds for two or more concentrations. CETP activity (% of control)=(Sample FLU−Blank FLU)×100/(Control FLU−Blank FLU) (Equation 1) In the equation, the terms have the following meanings: Blank FLU: Fluorescence intensity of sample not added with plasma Control FLU: Fluorescence intensity of plasma not added with solution of compound Sample FLU: Fluorescence intensity of plasma added with solution of compound
A value obtained by subtracting the value of the CETP activity from 100 was defined as the CETP inhibitory rate of each exemplary compound, and a concentration inhibiting the CETP activity by 50% (IC50) was calculated for each exemplary compound from the values of the CETP inhibitory rate at two or more concentrations. As the comparative compound, the following compound was used, which is the pyrimidine compound having a benzyl(heterocyclylmethyl)amine structure described in Example 66 of Patent document 10 (International Patent Publication WO2006/073973).

Point of comparison: CCN(CC1CCCC1)c1ccc(OC)nc1CN(c1ncc(OCC[S+](C)[O-])cn1)C(C)c1cc(C(F)(F)F)cc(C(F)(F)F)c1 (centres unmarked) [Example 2, N-{1-[3,5-bis(trifluoromethyl)phenyl]ethyl}-N-({3-[(cyclopentylmethyl)(ethyl)amino]-6-methoxypyridin-2-yl}methyl)-5-[2-(methylsulfinyl)ethoxy]pyrimidin-2-amine], potency estimated from few doses 150 nM. Against it:
- CCN(CC1CCCC1)c1nc2ccc(C(F)(F)F)cc2cc1CN(c1ncc(OCCS(C)(=O)=O)cn1)C(C)c1cc(C(F)(F)F)cc(C(F)(F)F)c1 (centres unmarked) [Example 11, 3-[({1-[3,5-bis(trifluoromethyl)phenyl]ethyl}{5-[2-(methylsulfonyl)ethoxy]pyrimidin-2-yl}amino)methyl]-N-(cyclopentylmethyl)-N-ethyl-6-trifluoromethylquinolin-2-amine] — 1.9-fold lower, 80 nM
- CCN(CC1CCCC1)c1nc2ccccc2cc1CN(Cc1cc(C(F)(F)F)cc(C(F)(F)F)c1)c1ncccn1 [Comparative Compound 1, reference compound] — 130-fold higher, 20000 nM
- CCN(CC1CCCC1)c1ccc(OC)nc1CN(c1ncc(OCCS(C)(=O)=O)cn1)C(C)c1cc(C(F)(F)F)cc(C(F)(F)F)c1 (centres unmarked) [Example 3, N-{1-[3,5-bis(trifluoromethyl)phenyl]ethyl}-N-({3-[(cyclopentylmethyl)(ethyl)amino]-6-methoxypyridin-2-yl}methyl)-5-[2-(methylsulfonyl)ethoxy]pyrimidin-2-amine] — the same, 150 nM
- CCN(CC1CCCC1)c1nc2ccc(C)cc2cc1CN(c1ncc(OCCS(C)(=O)=O)cn1)C(C)c1cc(C(F)(F)F)cc(C(F)(F)F)c1 (centres unmarked) [Example 13, 3-[({1-[3,5-bis(trifluoromethyl)phenyl]ethyl}{5-[2-(methylsulfonyl)ethoxy]pyrimidin-2-yl}amino)methyl]-N-(cyclopentylmethyl)-N-ethyl-6-methylquinolin-2-amine] — 1.9-fold lower, 80 nM
- CCc1ccc(CN(c2ncc(OCCS(C)(=O)=O)cn2)C(C)c2cc(C(F)(F)F)cc(C(F)(F)F)c2)c(N(CC)CC2CCCC2)n1 (centres unmarked) [Example 17, N-{1-[3,5-bis(trifluoromethyl)phenyl]ethyl}-N-({2-[(cyclopentylmethyl)(ethyl)amino]-6-ethylpyridin-3-yl}methyl)-5-[2-(methylsulfonyl)ethoxy]pyrimidin-2-amine] — 3.3-fold lower, 45 nM
- CCN(CC1CCCC1)c1nc2ccc(OC)cc2cc1CN(c1ncc(OCCS(C)(=O)=O)cn1)C(C)c1cc(C(F)(F)F)cc(C(F)(F)F)c1 (centres unmarked) [Example 9, 3-[({1-[3,5-bis(trifluoromethyl)phenyl]ethyl}{5-[2-(methylsulfonyl)ethoxy]pyrimidin-2-yl}amino)methyl]-N-(cyclopentylmethyl)-N-ethyl-6-methoxyquinolin-2-amine] — 3.3-fold higher, 500 nM
- CCN(CC1CCCC1)c1nc(C)c(C)cc1CN(c1ncc(OCCS(C)(=O)=O)cn1)C(C)c1cc(C(F)(F)F)cc(C(F)(F)F)c1 (centres unmarked) [Example 19, N-{1-[3,5-bis(trifluoromethyl)phenyl]ethyl}-N-({2-[(cyclopentylmethyl)(ethyl)amino]-5,6-dimethylpyridin-3-yl}methyl)-5-[2-(methylsulfonyl)ethoxy]pyrimidin-2-amine] — 5-fold lower, 30 nM
- CCN(CC1CCCC1)c1nc2ccccc2cc1CN(c1ncc(OCCS(C)(=O)=O)cn1)C(C)c1cc(C(F)(F)F)cc(C(F)(F)F)c1 (centres unmarked) [Example 7, 3-[({1-[3,5-bis(trifluoromethyl)phenyl]ethyl}{5-[2-(methylsulfonyl)ethoxy]pyrimidin-2-yl}amino)methyl]-N-(cyclopentylmethyl)-N-ethylquinolin-2-amine] — 3-fold lower, 50 nM
- CCN(CC1CCCC1)c1nc2c(cc1CN(c1ncc(OCCS(C)(=O)=O)cn1)C(C)c1cc(C(F)(F)F)cc(C(F)(F)F)c1)c(C)nn2C (centres unmarked) [Example 5, 5-[({1-[3,5-bis(trifluoromethyl)phenyl]ethyl}{5-[2-(methylsulfonyl)ethoxy]pyrimidin-2-yl}amino)methyl]-N-(cyclopentylmethyl)-N-ethyl-1,3-dimethyl-1H-pyrazolo[3,4-b]pyridin-6-amine] — 4.3-fold lower, 35 nM
- CCN(CC1CCCC1)c1nc(C)ccc1CN(c1ncc(OCCS(C)(=O)=O)cn1)C(C)c1cc(C(F)(F)F)cc(C(F)(F)F)c1 (centres unmarked) [Example 15, N-{1-[3,5-bis(trifluoromethyl)phenyl]ethyl}-N-({2-[(cyclopentylmethyl)(ethyl)amino]-6-methylpyridin-3-yl}methyl)-5-[2-(methylsulfonyl)ethoxy]pyrimidin-2-amine] — within 1.5-fold, 200 nM
- CCN(CC1CCCC1)c1nc2c(cc1CN(c1ncc(OCCS(C)(=O)=O)cn1)C(C)c1cc(C#N)cc(C(F)(F)F)c1)c(C)nn2C (centres unmarked) [Example 23, 3-{1-[({6-[(cyclopentylmethyl)(ethyl)amino]-1,3-dimethyl-1H-pyrazolo[3,4-b]pyridin-5-yl}methyl){5-[2-(methylsulfonyl)ethoxy]pyrimidin-2-yl}amino]ethyl}-5-(trifluoromethyl)benzonitrile] — the same, 150 nM

Test system: CETP
Test: Measurement of CETP inhibitory activity in blood of hamster (single oral administration)
Assay type: in vivo
Settings: hamster plasma, single oral dose 30 mg/kg in olive oil, blood collected 2 hours after administration, n=3; control 33.7 ± 2.3
Experimental: 1: Labeling of Donor Lipoprotein (HDL3 Fraction) with ^3H-Cholesterol and Preparation of Acceptor Lipoprotein (LDL Fraction)
The donor lipoprotein was prepared by adding KBr to plasma of healthy human subject (50 mL) to adjust the specific gravity (d) of the plasma to be 1.125, centrifuging the mixture at 100,000 rpm and 4° C. for 2.5 hours (Optima Max-E TLA-100.2 rotor, Beckman), and collecting the lower layer (HDL3 fraction, d>1.125). The resulting fraction was dialyzed against PBS (10 mM Na2HPO4, 10 mM NaH2PO4, 0.15 M NaCl, 1 mM EDTA-2Na, pH 7.4). Then, a 95% ethanol solution of 9.25 MBq 1, 2-3H(N)cholesterol (NEN™, Life Science Products, USA) was added to the sample with stirring, and the mixture was incubated at 37° C. for 18 hours. […]
To 10 μL of the hamster plasma, 5 μL of ^3H-labeled HDL3 and […] of LDL were added, and the final volume of the mixture was made 600 μL with a TBS solution (10 mM Tris, 0.15 M NaCl, pH 7.4). […] Then, radioactivity of 3H was measured with a liquid scintillation counter (TRI-CARB 2700 TR, Packard). […] CETP activity (%)=(Blank dpm−Sample dpm)×100/(Blank dpm) (Equation 2) In the equation, the terms have the following meanings: Blank dpm: Value of 3H radioactivity of sample not added with plasma Sample dpm: Value of ^3H radioactivity of sample added with compound or control sample.

Point of comparison: CCN(CC1CCCC1)c1nc2c(cc1CN(c1ncc(OCCS(C)(=O)=O)cn1)C(C)c1cc(C(F)(F)F)cc(C(F)(F)F)c1)c(C)nn2C (centres unmarked) [Example 5, 5-[({1-[3,5-bis(trifluoromethyl)phenyl]ethyl}{5-[2-(methylsulfonyl)ethoxy]pyrimidin-2-yl}amino)methyl]-N-(cyclopentylmethyl)-N-ethyl-1,3-dimethyl-1H-pyrazolo[3,4-b]pyridin-6-amine], “Average CETP activity ± standard deviation (%)” value 3.7 ± 3.2%. Against it:
- CCN(CC1CCCC1)c1nc2ccccc2cc1CN(Cc1cc(C(F)(F)F)cc(C(F)(F)F)c1)c1ncccn1 [Comparative Compound 1, reference compound] — higher, 30.3 ± 4.2%
